Measurements reported in PubChem BioAssay AID2060895 (Molecular Pharmacology Branch, DTP, NCI, 2025).

Tested on: PDC 899932-113-R3-J6 complex spheroid viability
Assay: Anticancer human tumor 899932-113-R3-J6-PDC patient-derived melanoma cell line growth inhibition [RAS]
Details: for IC50: curve of first compound; for viability, T/C: stronger effect = lower value
Outline: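 Tumour cells grown as complex spheroids with HUVEC endothelial cells and mesenchymal stem cells, treated with RAS pathway inhibitor combinations. Each agent spans half-log steps from near clinical Cmax, or 10 microM where Cmax is unknown.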

[1] = second compound 0.000949 µM, first compound 0.0316 µM
[2] = second compound 0.000949 µM, first compound 0.1 µM
[3] = second compound 0.000949 µM, first compound 0.316 µM
[4] = second compound 0.000949 µM, first compound 1 µM
[5] = second compound 0.003 µM, first compound 0.0316 µM
[6] = second compound 0.003 µM, first compound 0.1 µM
[7] = second compound 0.003 µM, first compound 0.316 µM
[8] = second compound 0.003 µM, first compound 1 µM
[9] = second compound 0.00949 µM, first compound 0.0316 µM
[10] = second compound 0.00949 µM, first compound 0.1 µM
[11] = second compound 0.00949 µM, first compound 0.316 µM
[12] = second compound 0.00949 µM, first compound 1 µM
[13] = second compound 0.03 µM, first compound 0.0316 µM
[14] = second compound 0.03 µM, first compound 0.1 µM
[15] = second compound 0.03 µM, first compound 0.316 µM
[16] = second compound 0.03 µM, first compound 1 µM
[17] = second compound 0.0949 µM, first compound 0.0316 µM
[18] = second compound 0.0949 µM, first compound 0.1 µM
[19] = second compound 0.0949 µM, first compound 0.316 µM
[20] = second compound 0.0949 µM, first compound 1 µM
[21] = second compound 0.3 µM, first compound 0.0316 µM
[22] = second compound 0.3 µM, first compound 0.1 µM
[23] = second compound 0.3 µM, first compound 0.316 µM
[24] = second compound 0.3 µM, first compound 1 µM
[25] = second compound 0.000949 µM, first compound 3.16 µM
[26] = second compound 0.000949 µM, first compound 10 µM
[27] = second compound 0.003 µM, first compound 3.16 µM
[28] = second compound 0.003 µM, first compound 10 µM
[29] = second compound 0.00949 µM, first compound 3.16 µM
[30] = second compound 0.00949 µM, first compound 10 µM
[31] = second compound 0.03 µM, first compound 3.16 µM
[32] = second compound 0.03 µM, first compound 10 µM
[33] = second compound 0.0949 µM, first compound 3.16 µM
[34] = second compound 0.0949 µM, first compound 10 µM
[35] = second compound 0.3 µM, first compound 3.16 µM
[36] = second compound 0.3 µM, first compound 10 µM
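For viability, T/C in this document: spheroids exposed to agents for seven days before readout; 100% = DMSO vehicle control wells.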

`CCN1CCN(Cc2ccc(Nc3ncc(F)c(-c4cc(F)c5nc(C)n(C(C)C)c5c4)n3)nc2)CC1` + CCn1c(-c2cc(N3CCN(C)CC3)cnc2C(C)OC)c2c3cc(ccc31)-c1csc(n1)CC(NC(=O)C1CC1C)C(=O)N1CCCC(N1)C(=O)OCC(C)(C)C2 gave an IC50 (second compound 0.000949 µM) of 0.22 µM, an IC50 (second compound 0.003 µM) of under 0.00316 µM and an IC50 (second compound 0.00949 µM) of under 0.00316 µM. The IC50 (second compound 0.03 µM) was under 0.00316 µM, the IC50 (second compound 0.0949 µM) was under 0.00316 µM and the IC50 (second compound 0.3 µM) was under 0.00316 µM. It also gave a viability, T/C (second compound 0.000949 µM, first compound 0.00316 µM) of 80.5%, a viability, T/C (second compound 0.000949 µM, first compound 0.01 µM) of 75.5% and a viability, T/C [1] of 75.2%. It also gave a viability, T/C [2] of 63.3%, a viability, T/C [3] of 43.7% and a viability, T/C [4] of 18.3%. It also gave a viability, T/C (second compound 0.003 µM, first compound 0.00316 µM) of 38.1%, a viability, T/C (second compound 0.003 µM, first compound 0.01 µM) of 39.2% and a viability, T/C [5] of 33.3%. It also gave a viability, T/C [6] of 30.1%, a viability, T/C [7] of 23.8% and a viability, T/C [8] of 10.2%. For the same molecule, the viability, T/C (second compound 0.00949 µM, first compound 0.00316 µM) was 4.63%, the viability, T/C (second compound 0.00949 µM, first compound 0.01 µM) was 4.32% and the viability, T/C [9] was 4.31%. For the same molecule, the viability, T/C [10] was 3.66%, the viability, T/C [11] was 5.16% and the viability, T/C [12] was 6.09%. The viability, T/C (second compound 0.03 µM, first compound 0.00316 µM) was 3.02%, the viability, T/C (second compound 0.03 µM, first compound 0.01 µM) was 2.66% and the viability, T/C [13] was 2.79%. It also gave a viability, T/C [14] of 2.48%, a viability, T/C [15] of 3.21% and a viability, T/C [16] of 2.94%. It also gave a viability, T/C (second compound 0.0949 µM, first compound 0.00316 µM) of 2.31%, a viability, T/C (second compound 0.0949 µM, first compound 0.01 µM) of 2.1% and a viability, T/C [17] of 2.15%. The viability, T/C [18] was 2.33%, the viability, T/C [19] was 2.24% and the viability, T/C [20] was 2.47%. It also gave a viability, T/C (second compound 0.3 µM, first compound 0.00316 µM) of 1.97%, a viability, T/C (second compound 0.3 µM, first compound 0.01 µM) of 2.12% and a viability, T/C [21] of 2.2%. For the same molecule, the viability, T/C [22] was 2.05%, the viability, T/C [23] was 1.76% and the viability, T/C [24] was 2.01%.

Work on `Cc1nc(N2CCC3(CC2)COC(C)C3N)c(CO)nc1Sc1ccnc(N)c1Cl` (stereo unspecified) + CCn1c(-c2cc(N3CCN(C)CC3)cnc2C(C)OC)c2c3cc(ccc31)-c1csc(n1)CC(NC(=O)C1CC1C)C(=O)N1CCCC(N1)C(=O)OCC(C)(C)C2 yielded an IC50 (second compound 0.000949 µM) of over 10 µM, an IC50 (second compound 0.003 µM) of under 0.0316 µM and an IC50 (second compound 0.00949 µM) of under 0.0316 µM. The IC50 (second compound 0.03 µM) was under 0.0316 µM, the IC50 (second compound 0.0949 µM) was under 0.0316 µM and the IC50 (second compound 0.3 µM) was under 0.0316 µM. The viability, T/C [1] was 70.1%, the viability, T/C [2] was 71.2% and the viability, T/C [3] was 76.8%. It also gave a viability, T/C [4] of 78.6%, a viability, T/C [25] of 80% and a viability, T/C [26] of 83%. For the same molecule, the viability, T/C [5] was 29.8%, the viability, T/C [6] was 29.9% and the viability, T/C [7] was 30.1%. For the same molecule, the viability, T/C [8] was 31.8%, the viability, T/C [27] was 38.8% and the viability, T/C [28] was 35.3%. The viability, T/C [9] was 3.52%, the viability, T/C [10] was 3.03% and the viability, T/C [11] was 2.45%. It also gave a viability, T/C [12] of 2.29%, a viability, T/C [29] of 2.72% and a viability, T/C [30] of 2.76%. It also gave a viability, T/C [13] of 2.9%, a viability, T/C [14] of 2.41% and a viability, T/C [15] of 2.2%. For the same molecule, the viability, T/C [16] was 2.42%, the viability, T/C [31] was 1.4% and the viability, T/C [32] was 1.8%. It also gave a viability, T/C [17] of 2.84%, a viability, T/C [18] of 2.97% and a viability, T/C [19] of 1.92%. The viability, T/C [20] was 2.03%, the viability, T/C [33] was 1.67% and the viability, T/C [34] was 0.79%. The viability, T/C [21] was 2.22%, the viability, T/C [22] was 2.77% and the viability, T/C [23] was 1.95%. It also gave a viability, T/C [24] of 2.27%, a viability, T/C [35] of 1.64% and a viability, T/C [36] of 1.71%.

With `NC1c2ccccc2OC12CCN(c1cnc3c(N4CCCc5ncccc54)n[nH]c3n1)CC2` (stereo unspecified) + CCn1c(-c2cc(N3CCN(C)CC3)cnc2C(C)OC)c2c3cc(ccc31)-c1csc(n1)CC(NC(=O)C1CC1C)C(=O)N1CCCC(N1)C(=O)OCC(C)(C)C2 the IC50 (second compound 0.000949 µM) was over 10 µM, the IC50 (second compound 0.003 µM) was under 0.0316 µM and the IC50 (second compound 0.00949 µM) was under 0.0316 µM. It also gave an IC50 (second compound 0.03 µM) of under 0.0316 µM, an IC50 (second compound 0.0949 µM) of under 0.0316 µM and an IC50 (second compound 0.3 µM) of under 0.0316 µM. For the same molecule, the viability, T/C [1] was 72.7%, the viability, T/C [2] was 64.5% and the viability, T/C [3] was 79.9%. It also gave a viability, T/C [4] of 73.4%, a viability, T/C [25] of 81% and a viability, T/C [26] of 70.2%. The viability, T/C [5] was 31.8%, the viability, T/C [6] was 27.1% and the viability, T/C [7] was 34.3%. It also gave a viability, T/C [8] of 38%, a viability, T/C [27] of 38.2% and a viability, T/C [28] of 12.4%. For the same molecule, the viability, T/C [9] was 2.82%, the viability, T/C [10] was 2.7% and the viability, T/C [11] was 2%. For the same molecule, the viability, T/C [12] was 2.89%, the viability, T/C [29] was 3.55% and the viability, T/C [30] was 4.09%. The viability, T/C [13] was 2.17%, the viability, T/C [14] was 1.67% and the viability, T/C [15] was 1.01%. It also gave a viability, T/C [16] of 0.93%, a viability, T/C [31] of 0.99% and a viability, T/C [32] of 2.33%. It also gave a viability, T/C [17] of 1.84%, a viability, T/C [18] of 1.61% and a viability, T/C [19] of 0.9%. The viability, T/C [20] was 0.51%, the viability, T/C [33] was 0.3% and the viability, T/C [34] was 1.08%. For the same molecule, the viability, T/C [21] was 1.87%, the viability, T/C [22] was 2.01% and the viability, T/C [23] was 1.11%. It also gave a viability, T/C [24] of 0.31%, a viability, T/C [35] of 0.4% and a viability, T/C [36] of 0.35%.
